Measured values published in article PMC6272914, “Bio-Guided Isolation of Methanol-Soluble Metabolites of Common Spruce (Picea abies) Bark by-Products and Investigation of Their Dermo-Cosmetic Properties” (Molecules, 2016).

Biological target: collagenase from Clostridium histolyticum
Assay: fluorogenic MMP2 substrate collagenase inhibition assay
Format: biochemical, Hathewaya histolytica

| Structure (SMILES) | IC50 |
| --- | --- |
| CC(C)C[C@H](NP(=O)(O)O[C@@H]1O[C@@H](C)[C@H](O)[C@@H](O)[C@H]1O)C(=O)N[C@@H](Cc1c[nH]c2ccccc12)C(=O)O [PRMD, phosphoramidon, reference compound] | 6.9 µM |
| O=C1c2c(O)cc(O)cc2O[C@H](c2ccc(O)c(O)c2)[C@H]1O [compound 4, taxifolin] | 193 µM |
| OC[C@H]1O[C@@H](Oc2cc(O)cc(/C=C/c3ccc(O)cc3)c2)[C@H](O)[C@@H](O)[C@@H]1O [compound 6, E-piceid] | 259 µM |
| OC[C@H]1O[C@@H](Oc2cc(O)cc(/C=C/c3ccc(O)c(O)c3)c2)[C@H](O)[C@@H](O)[C@@H]1O [compound 8, E-astringin] | 125 µM |
| O=C1c2c(O)cc(O)cc2O[C@H](c2ccc(O)c(O[C@@H]3O[C@H](CO)[C@@H](O)[C@H](O)[C@H]3O)c2)[C@H]1O [compound 9, taxifolin-3′-O-glucoside] | 141 µM |
